For 22 compounds, IC50 results are on record in patent publication US20210115018A1, “PIPERIDINE COMPOUNDS AS COVALENT MENIN INHIBITORS” (THE REGENTS OF THE UNIVERSITY OF MICHIGAN, priority 2018, published 2021).

One experiment has as its system MOLM13. The experiment in a line: 7-day proliferation assay (WST-8), cell growth inhibition. Type of experiment: cell-based. The conditions noted are these: Homo sapiens, MOLM-13, 168 h, MOLM13 cells, 7 days. The essentials:
(§1)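 Cells seeded at 2,000-3,000/well were exposed to serially diluted compound for 7 days at 37° C., 5% CO2. Viability was read by WST-8 absorbance at 450 nm after 1-2 h color development; readings normalized to DMSO-treated cells, IC50 by four-parameter nonlinear regression.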
In general terms: Tetrazolium assays rely on reduction of a dye to a coloured formazan, in cell work by metabolically active cells.

Another experiment deals with MV4-11. Described as above. Type of experiment: cell-based. The conditions noted are these: Homo sapiens, MV4-11, 168 h, MV4-11 cells, 7 days. The method, boiled down:
as §1

In a further experiment the target is T1, menin protein (Homo sapiens, UniProt O00255).
T1 sequence (O00255 1-610): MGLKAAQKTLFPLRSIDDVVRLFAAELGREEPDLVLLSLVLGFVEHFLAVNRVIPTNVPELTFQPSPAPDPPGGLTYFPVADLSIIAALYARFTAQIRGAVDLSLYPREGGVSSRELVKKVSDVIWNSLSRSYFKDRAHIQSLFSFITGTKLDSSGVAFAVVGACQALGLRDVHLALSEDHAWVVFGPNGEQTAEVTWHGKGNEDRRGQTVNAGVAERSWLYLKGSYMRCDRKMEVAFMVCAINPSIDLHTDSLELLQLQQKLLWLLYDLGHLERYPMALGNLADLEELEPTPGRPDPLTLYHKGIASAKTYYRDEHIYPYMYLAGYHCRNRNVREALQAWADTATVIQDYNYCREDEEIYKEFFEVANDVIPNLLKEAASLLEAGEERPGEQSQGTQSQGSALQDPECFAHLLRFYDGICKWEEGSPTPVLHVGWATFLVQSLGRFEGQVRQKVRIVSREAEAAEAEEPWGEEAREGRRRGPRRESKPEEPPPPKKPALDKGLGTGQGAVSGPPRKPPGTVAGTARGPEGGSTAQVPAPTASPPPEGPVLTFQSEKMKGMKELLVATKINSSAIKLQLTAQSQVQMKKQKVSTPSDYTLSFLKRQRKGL
The experiment can be described thus: Fluorescence polarization (FP) competitive binding assay, menin binding affinity. The conditions noted are these: FP competition with FAM-MM2 probe 2 nM, menin 4 nM, 30 minutes room temperature. The essentials: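 Competitive FP with FAM-labeled MLL1 peptide probe FAM-MM2 (2 nM) and menin (4 nM) in PBS, 0.02% bovine γ-globulin, 4% DMSO, 0.01% Triton X-100. After 30 min at room temperature, mP read at 485/530 nm; IC50 from nonlinear regression against probe-only and complex-only controls.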
For orientation: Fluorescence polarisation rises when a labelled molecule tumbles more slowly, as on binding a larger partner.

In general, IC50 refers to the midpoint of a concentration-inhibition curve. For `C=CC(=O)Nc1cccc(S(=O)(=O)c2ccc(N3CC(F)(CN4CCC([C@@](CN5CCC5)(c5cccc(F)c5)[C@H]5CCC[C@@H]5NC(=O)OC)CC4)C3)c(F)c2)c1` [compound 80], the IC50 with MOLM13 was under 50 nM; with MV4-11, under 50 nM; on menin protein, 2 nM.

`COC(=O)N[C@H]1CCC[C@@H]1[C@](CN1CCC1)(c1cccc(F)c1)C1CCN(CC2CN(c3ccc(S(=O)(=O)C4CN(C(=O)/C=C/CN5CCC(C)(O)CC5)C4)cc3)C2)CC1` [compound 99]: the IC50 is under 100 nM with MOLM13, under 10 nM with MV4-11 and 9 nM at menin protein.

On to `COC(=O)N[C@H]1CCC[C@@H]1[C@](CNC(C)=O)(c1cccc(F)c1)C1CCN(CC2CN(c3ccc(S(=O)(=O)C4CN(C(=O)/C=C/CN5CCCCC5)C4)c(CN4CC(F)C4)c3)C2)CC1` [compound 131], for which the IC50 in the experiment with MOLM13 is under 10 nM; in the experiment with MV4-11, under 10 nM; on menin protein, 2 nM.

Turning to `C=CC(=O)N1CCCCC(S(=O)(=O)c2ccc(N3CC(F)(CN4CCC([C@@](CN5CCC5)(c5cccc(F)c5)[C@H]5CCC[C@@H]5NC(=O)OC)CC4)C3)cc2)C1` (stereo partly drawn) [compound 215], the 50% inhibitory concentration (IC50) in the experiment with MOLM13 was under 10 nM; with MV4-11, under 10 nM; at menin protein, 1 nM.

Take `C=CC(=O)N1CCOC[C@@H](S(=O)(=O)c2ccc(N3CC(F)(CN4CCC([C@@](CN5CCC5)(c5cccc(F)c5)[C@H]5CCC[C@@H]5NC(=O)OC)CC4)C3)c(F)c2)C1` [compound 216]: the results for the IC50 in the experiment with MOLM13, with MV4-11 and on menin protein were under 100 nM, under 50 nM and 2 nM, respectively.

In the case of `C=CC(=O)N1CCOC[C@@H](S(=O)(=O)c2ccc(N3CC(C)(CN4CCC([C@@](CN5CCC5)(c5cccc(F)c5)[C@H]5CCC[C@@H]5NC(=O)OC)CC4)C3)c(F)c2)C1` [compound 217], the values for the IC50 in the experiment on MOLM13, in the experiment with MV4-11 and on menin protein were under 100 nM, under 10 nM and 2 nM, respectively.

As to `C=CC(=O)N1CCOC[C@@H](S(=O)(=O)c2ccc(N3CC(CN4CCC([C@@](CN5CCC5)(c5cccc(F)c5)[C@H]5CCC[C@@H]5NC(=O)OC)CC4)C3)c(F)c2)C1` [compound 218], the results for the IC50 in the experiment on MOLM13, with MV4-11 and on menin protein were under 1000 nM, under 50 nM and 2 nM, respectively.

With `C=CC(=O)N1CCC[C@@H](S(=O)(=O)c2ccc(N3CC(CN4CCC([C@@](CN5CCC5)(c5cccc(F)c5)[C@H]5CCC[C@@H]5NC(=O)OC)CC4)C3)c(F)c2)C1` [compound 219], the IC50 is under 10 nM in the experiment on MOLM13, under 10 nM with MV4-11 and 2 nM on menin protein.

As to `C=CC(=O)N1CCCC[C@@H](S(=O)(=O)c2ccc(N3CC(CN4CCC([C@@](CN5CCC5)(c5cccc(F)c5)[C@H]5CCC[C@@H]5NC(=O)OC)CC4)C3)cc2)C1` [compound 220], the IC50 is under 50 nM with MOLM13, under 10 nM in the experiment with MV4-11 and 5 nM on menin protein.

Take `C=CC(=O)N1CCCC[C@@H](S(=O)(=O)c2ccc(N3CC(F)(CN4CCC([C@@](CN5CCC5)(c5cccc(F)c5)[C@H]5CCC[C@@H]5NC(=O)OC)CC4)C3)cc2)C1` [compound 221]: the 50% inhibitory concentration (IC50) with MOLM13 was under 50 nM; in the experiment on MV4-11 it was under 50 nM; at menin protein, 5 nM.

With `C=CC(=O)N1CCCC[C@@H](S(=O)(=O)c2ccc(N3CC(C)(CN4CCC([C@@](CN5CCC5)(c5cccc(F)c5)[C@H]5CCC[C@@H]5NC(=O)OC)CC4)C3)cc2)C1` [compound 222], the IC50 was under 50 nM in the experiment with MOLM13, under 50 nM in the experiment on MV4-11 and 4 nM on menin protein.

For `C=CC(=O)N1CCCC[C@@H](S(=O)(=O)c2ccc(N3CC(CN4CCC([C@@](CN5CCC5)(c5cccc(F)c5)[C@H]5CCC[C@@H]5NC(=O)OC)CC4)C3)c(F)c2)C1` [compound 223], the IC50 is under 50 nM with MOLM13, under 50 nM in the experiment on MV4-11 and 4 nM at menin protein.

As for `C=CC(=O)N1CCCC[C@@H](S(=O)(=O)c2ccc(N3CC(F)(CN4CCC([C@@](CN5CCC5)(c5cccc(F)c5)[C@H]5CCC[C@@H]5NC(=O)OC)CC4)C3)c(F)c2)C1` [compound 224], the results for the IC50 with MOLM13, with MV4-11 and at menin protein were under 50 nM, under 50 nM and 4 nM, respectively.

For the compound `C=CC(=O)N1CCCC[C@@H](S(=O)(=O)c2ccc(N3CC(C)(CN4CCC([C@@](CN5CCC5)(c5cccc(F)c5)[C@H]5CCC[C@@H]5NC(=O)OC)CC4)C3)c(F)c2)C1` [compound 225], the IC50 in the experiment with MOLM13 was under 100 nM; in the experiment with MV4-11, under 100 nM; on menin protein, 7 nM.

For the compound `C=CC(=O)N1CCCC[C@@H](S(=O)(=O)c2ccc(N3CC(CN4CCC([C@@](CN5CCC5)(c5cccc(F)c5)[C@H]5CCC[C@@H]5NC(=O)OC)CC4)(OC)C3)cc2)C1` [compound 226], the IC50 in the experiment on MOLM13 was under 50 nM; in the experiment with MV4-11, under 50 nM; at menin protein, 3 nM.

For `C=CC(=O)N1CCCC[C@@H](S(=O)(=O)c2ccc(N3CC(CN4CCC([C@@](CN5CCC5)(c5cccc(F)c5)[C@H]5CCC[C@@H]5NC(=O)OC)CC4)(OC)C3)c(F)c2)C1` [compound 227], the 50% inhibitory concentration (IC50) was under 50 nM in the experiment on MOLM13, under 50 nM in the experiment with MV4-11 and 7 nM at menin protein.

`C=CC(=O)N1CCCC[C@@H](S(=O)(=O)c2ccc(N3CC(O)(CN4CCC([C@@](CN5CCC5)(c5cccc(F)c5)[C@H]5CCC[C@@H]5NC(=O)OC)CC4)C3)cc2)C1` [compound 228]: the IC50 is under 500 nM with MOLM13, under 50 nM in the experiment on MV4-11 and 7 nM at menin protein.

For `C=CC(=O)N1CCCC[C@@H](S(=O)(=O)c2ccc(N3CC(O)(CN4CCC([C@@](CN5CCC5)(c5cccc(F)c5)[C@H]5CCC[C@@H]5NC(=O)OC)CC4)C3)c(F)c2)C1` [compound 229], the IC50 with MOLM13 is under 500 nM; in the experiment on MV4-11, under 100 nM; on menin protein, 8 nM.

On to `C=CC(=O)N1CCOC[C@@H](S(=O)(=O)c2ccc(N3CC(CN4CCC([C@@](CN5CCC5)(c5cccc(F)c5)[C@H]5CCC[C@@H]5NC(=O)OC)CC4)(OC)C3)c(F)c2)C1` [compound 230], for which the half-inhibitory concentration (IC50) was under 50 nM with MOLM13, under 50 nM in the experiment on MV4-11 and 5 nM on menin protein.

For the compound `CC#CC(=O)N1CCCC[C@@H](S(=O)(=O)c2ccc(N3CC(F)(CN4CCC([C@@](CN5CCC5)(c5cccc(F)c5)[C@H]5CCC[C@@H]5NC(=O)OC)CC4)C3)cc2)C1` [compound 231], the IC50 in the experiment on MOLM13 is under 500 nM; with MV4-11 it was under 500 nM; at menin protein, 4 nM.

Turning to `CC#CC(=O)N1CCCC[C@@H](S(=O)(=O)c2ccc(N3CC(CN4CCC([C@@](CN5CCC5)(c5cccc(F)c5)[C@H]5CCC[C@@H]5NC(=O)OC)CC4)(OC)C3)c(F)c2)C1` [compound 232], the IC50 in the experiment with MOLM13 is under 500 nM; with MV4-11, under 100 nM; on menin protein it was 3 nM.

On to `C/C=C/S(=O)(=O)N1CCCC[C@@H](S(=O)(=O)c2ccc(N3CC(F)(CN4CCC([C@@](CN5CCC5)(c5cccc(F)c5)[C@H]5CCC[C@@H]5NC(=O)OC)CC4)C3)cc2)C1` [compound 233], for which the IC50 with MOLM13 is under 500 nM; in the experiment with MV4-11 it was under 100 nM; on menin protein, 3 nM.
